The values below come from patent US20050192264A1, “Slow release steroid composition” (priority 2004, published 2005).

Data set [1] in a line: Flow-through dissolution of TA samples in 20% methanol in water. Particulars: solvent solution 20% methanol in water. In kind it is physicochemical. The protocol: Samples were prepared by dispensing 10 mg of sample into 10 mL of a balanced salt solution comprising 1% Tween 80. The sample in solution was then subjected to vigorous shaking and a number of rapid expulsions through a 22 gauge needle. 2 mL of this suspension was then filtered through a […] Durapore membrane filter which retained essentially all of the particles. The filter is then rinsed with 2 mL water.
This method of sample preparation avoids the problem of particles formed of large agglomerations of crystals which appear to dissolve as large crystals and therefore bias results.
Dissolution was performed using a flow through system that pumps a degassed solvent solution of 20% methanol in water through the dissolution chamber at around 11 mL per minute. […] The combination of flow rate and solvent solution dissolves the TA crystals at a rate that enables a flow-through cell to record absorbance values in the acceptable range for virtually all of the 30 minute run time and for the experiment to be completed in a reasonable period. […]
Approximately 2 mg of sample was prepared on a filter as outlined above. […] The absorbance was recorded on a chart recorder with 2 absorbance units causing 100% pen deflection.
Dissolution studies were carried out for a period of 30 minutes with a flow rate of 11 mL per minute. Average absorbance values over 2 minute periods were calculated. […]

Data set [2] is described as follows: Equilibrium solubility of triamcinolone acetonide in various media (HPLC). Format: physicochemical. Particulars: thermodynamic from solid, read-out: Triamcinolone acetonide conc. (equilibrium solubility). The source says:
An HPLC assay method was developed for TA. This was used to determine the equilibrium solubility for TA in various media. It was considered that a solution of acetonitrile may be advantageous for the maintenance of sink conditions, wherein a large surplus of solvent/absorbant/carrier capacity is maintained.

The nature of data set [3]: Saline saturated with TA (filter validation stock). Format: physicochemical. The method, then: Solutions at 1% and 10% of saturation were prepared from a stock of saline saturated with TA (15 μg/mL). The solutions were filtered through a syringe filter and aliquots (200 μL) of the filtrate were collected. […] Consequently, an 800 μL prefiltration volume (see dissolution method above) was assumed sufficient to ensure that the filtrate concentration was representative of the dissolved TA concentration in the dissolution vessel.

The conditions of data set [4]: cited from earlier work.
Data set [5] relates to clinically significant macular edema. Particulars: intravitreal injection of the usual dose (4 mg); cited from earlier work.

Values after ≈ are worked out from the molar mass of the structure shown. Like-named read-outs stand apart in the source and are kept apart here.

As for `CC1(C)O[C@@H]2CC3C4CCC5=CC(=O)C=CC5(C)[C@@]4(F)C(O)CC3(C)C2(C(=O)CO)O1` (stereo partly shown) [triamcinolone acetonide, 9-fluoro-11,21-dihydroxy-16,17-[1-methylethylidinebis(oxy)]pregna-1,4-diene-3,20-dione], the “solubility of TA in the solvent solution relative to TA in water alone” value in data set [1] is recorded as 2-3 times. Further, the solubility thermodynamic in data set [2] (5% Acetonide, aqueous with cosolvent or surfactant or cyclodextrin) amounted to 5.2 µg/mL (≈ 12 µM); in data set [2] (10% Acetonide, aqueous with cosolvent or surfactant or cyclodextrin), 9.1 µg/mL (≈ 20.9 µM); in data set [2] (30% Acetonide, aqueous with cosolvent or surfactant or cyclodextrin), 128 µg/mL (≈ 295 µM); in data set [2] (distilled water, water), 8.8 µg/mL (≈ 20.3 µM); in data set [2] (normal saline, saline or isotonic) it was 8.2 µg/mL (≈ 18.9 µM). Besides, the “concentration of saline saturated with TA” value in data set [3] stood at 15000 ng/mL. In data set [4] (patients who have not undergone vitrectomy, assuming five half-lives), the “persistence at measurable concentrations in the vitreous humour” value was 93 ± 28 days. Further, in data set [4] (single intravitreal injection, nonvitrectomized patients), the mean elimination half-life is reported as 18.6 days. Besides, the “time after which beneficial effects are diminished” value in data set [5] is given as “approximately three”.
